Read-outs that look alike come from different tables or passages of the source.
Columns and labels:
Cav2.2 = biological target: T1, Cav2.2 (Homo sapiens, UniProt Q00975); assay: HEK assay (whole-cell patch clamp, transiently transfected HEK-293T/17 cells, pulses P1 and P5); assay type: cell-based; details: holding potential −100 mV
T1 construct: expressed in transfected cells; host or cells: HEK-293T/17 (transient, FuGENE 6)
Description: HEK-293T/17 cells were transiently transfected in a similar manner as described in FuGENE 6 Package Insert Version 7, April 2002, Roche Applied Science, Indianapolis, Ind. The cells were plated at 2.5×10^5 cells in 2 mL in a 6-well plate, incubated for one night, and achieved a ˜30-40% confluence. In a small sterile tube, sufficient serum-free medium was added as diluent for FuGENE Transfection Reagent (Roche Applied Science, Indianapolis, Ind.) to a total volume of 100 μL. To this medium was added 3 μL of FuGENE 6 Reagent. The mixture was tapped gently to mix. To the prediluted FuGENE 6 Reagent was added 2 μg of DNA solution (0.8-2.0 μg/μL). The DNA/Fugene 6 mixture was gently pipeted to mix the contents and incubated for about 15 minutes at room temperature. The complex mixture was then added to the HEK-293T/17 cells, distributed around the well, and swirled to ensure even dispersal. The cells were returned to the incubator for 24 hours. The transfected cells were then replated at density 2.5×10^5 in a 35 mm dish with 5 glass coverslips and grew in low serum (1%) media for 24 hours. Coverslips with isolated cells were then transferred into a chamber, and calcium channel (e.g., L-type, N-type, etc.) current or other currents for counter screening were recorded from the transiently transfected HEK-293T/17 cells.
The whole-cell voltage clamp configuration of the patch clamp technique was employed to evaluate voltage-dependent calcium currents essentially as described by Thompson and Wong (1991), J. Physiol., 439: 671-689, the entire disclosure of which is herein incorporated by reference. To record calcium channel (e.g., L-type, N-type, etc.) currents for evaluation of inhibitory potency of compounds (steady-state concentration-response analysis), five pulses of 20-30 ms voltage steps to about +10 mV (the peak of the current voltage relationship) were delivered at five Hz every 30 second from a holding potential at −100 mV. In order to obtain an estimate of the degree of use-dependent block of the test compounds, IC50 values were determined at the first and fifth pulse of the train (P1 and P5, respectively, in Table 2). Compound evaluations were carried out essentially as described by Sah D. W. and Bean B. P. (1994), Mol. Pharmacol., 45:84-92, the entire disclosure of which is herein incorporated by reference.

[1] = biological target: T2, human Cav2.2 (composed of the subunits α1, β3 and α2δ) (Homo sapiens, UniProt Q00975); assay: FLIPR assay (TSA201 cells stably transfected with human Cav2.2 and human Kir2.3, FLUO-4 Ca2+ signal, KCl depolarization); assay type: cell-based; details: 70 mM KCl depolarization, average value
T2 construct: expressed in transfected cells
T2 sequence (Q00975 whole entry): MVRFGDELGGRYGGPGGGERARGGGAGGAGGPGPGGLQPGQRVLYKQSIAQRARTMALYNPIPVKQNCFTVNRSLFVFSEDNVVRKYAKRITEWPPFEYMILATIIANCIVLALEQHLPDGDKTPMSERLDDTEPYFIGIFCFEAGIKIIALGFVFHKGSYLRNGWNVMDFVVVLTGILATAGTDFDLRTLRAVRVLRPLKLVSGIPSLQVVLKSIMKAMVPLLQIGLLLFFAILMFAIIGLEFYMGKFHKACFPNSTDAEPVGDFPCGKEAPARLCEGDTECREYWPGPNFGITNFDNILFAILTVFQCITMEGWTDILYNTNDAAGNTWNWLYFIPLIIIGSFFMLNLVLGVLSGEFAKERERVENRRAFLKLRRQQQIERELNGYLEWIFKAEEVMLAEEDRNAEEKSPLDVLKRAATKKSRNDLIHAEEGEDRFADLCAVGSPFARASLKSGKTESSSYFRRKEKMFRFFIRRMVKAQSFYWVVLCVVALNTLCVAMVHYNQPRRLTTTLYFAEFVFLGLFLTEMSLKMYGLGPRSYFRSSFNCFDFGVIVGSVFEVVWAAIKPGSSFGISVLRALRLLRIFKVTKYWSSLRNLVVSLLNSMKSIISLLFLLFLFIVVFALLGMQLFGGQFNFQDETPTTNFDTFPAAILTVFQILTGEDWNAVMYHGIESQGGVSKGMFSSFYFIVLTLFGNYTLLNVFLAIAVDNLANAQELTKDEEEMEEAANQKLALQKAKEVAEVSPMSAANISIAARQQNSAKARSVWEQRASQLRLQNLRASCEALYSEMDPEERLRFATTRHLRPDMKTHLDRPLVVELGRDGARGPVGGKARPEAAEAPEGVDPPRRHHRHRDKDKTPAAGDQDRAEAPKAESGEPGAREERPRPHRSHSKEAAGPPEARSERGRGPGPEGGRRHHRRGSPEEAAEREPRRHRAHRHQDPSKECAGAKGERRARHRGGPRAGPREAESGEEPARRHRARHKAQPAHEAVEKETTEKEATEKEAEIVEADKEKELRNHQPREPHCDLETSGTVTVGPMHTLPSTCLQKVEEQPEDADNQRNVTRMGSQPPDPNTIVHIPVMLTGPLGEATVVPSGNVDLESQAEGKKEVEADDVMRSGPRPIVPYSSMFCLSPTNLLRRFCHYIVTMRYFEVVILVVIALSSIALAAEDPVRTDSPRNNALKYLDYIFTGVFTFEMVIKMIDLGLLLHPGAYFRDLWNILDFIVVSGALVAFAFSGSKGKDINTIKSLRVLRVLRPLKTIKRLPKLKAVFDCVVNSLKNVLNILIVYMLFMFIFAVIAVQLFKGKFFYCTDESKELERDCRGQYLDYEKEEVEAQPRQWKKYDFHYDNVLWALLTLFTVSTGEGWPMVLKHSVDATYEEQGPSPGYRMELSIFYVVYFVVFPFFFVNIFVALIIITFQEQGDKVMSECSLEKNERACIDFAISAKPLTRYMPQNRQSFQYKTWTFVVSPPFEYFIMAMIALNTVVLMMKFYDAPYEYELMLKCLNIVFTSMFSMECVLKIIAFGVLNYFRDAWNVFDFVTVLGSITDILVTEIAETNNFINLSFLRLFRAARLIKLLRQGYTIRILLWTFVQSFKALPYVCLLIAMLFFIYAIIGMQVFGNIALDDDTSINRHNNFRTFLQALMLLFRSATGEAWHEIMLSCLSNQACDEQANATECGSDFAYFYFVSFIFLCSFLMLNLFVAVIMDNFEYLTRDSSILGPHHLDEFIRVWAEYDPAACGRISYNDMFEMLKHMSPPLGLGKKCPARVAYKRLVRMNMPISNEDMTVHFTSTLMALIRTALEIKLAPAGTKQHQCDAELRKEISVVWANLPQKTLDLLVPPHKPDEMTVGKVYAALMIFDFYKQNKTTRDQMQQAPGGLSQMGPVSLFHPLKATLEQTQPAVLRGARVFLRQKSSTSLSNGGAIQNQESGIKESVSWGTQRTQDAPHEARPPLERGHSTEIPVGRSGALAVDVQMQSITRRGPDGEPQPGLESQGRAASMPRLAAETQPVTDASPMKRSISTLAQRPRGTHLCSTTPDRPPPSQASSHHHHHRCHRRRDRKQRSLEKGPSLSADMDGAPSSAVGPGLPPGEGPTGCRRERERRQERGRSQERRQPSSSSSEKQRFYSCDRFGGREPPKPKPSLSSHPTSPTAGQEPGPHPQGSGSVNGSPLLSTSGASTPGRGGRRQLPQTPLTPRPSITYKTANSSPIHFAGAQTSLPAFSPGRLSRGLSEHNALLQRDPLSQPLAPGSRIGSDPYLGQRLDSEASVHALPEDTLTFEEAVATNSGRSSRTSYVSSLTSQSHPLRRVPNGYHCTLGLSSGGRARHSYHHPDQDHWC
T2 sequence (P54284 whole entry partner): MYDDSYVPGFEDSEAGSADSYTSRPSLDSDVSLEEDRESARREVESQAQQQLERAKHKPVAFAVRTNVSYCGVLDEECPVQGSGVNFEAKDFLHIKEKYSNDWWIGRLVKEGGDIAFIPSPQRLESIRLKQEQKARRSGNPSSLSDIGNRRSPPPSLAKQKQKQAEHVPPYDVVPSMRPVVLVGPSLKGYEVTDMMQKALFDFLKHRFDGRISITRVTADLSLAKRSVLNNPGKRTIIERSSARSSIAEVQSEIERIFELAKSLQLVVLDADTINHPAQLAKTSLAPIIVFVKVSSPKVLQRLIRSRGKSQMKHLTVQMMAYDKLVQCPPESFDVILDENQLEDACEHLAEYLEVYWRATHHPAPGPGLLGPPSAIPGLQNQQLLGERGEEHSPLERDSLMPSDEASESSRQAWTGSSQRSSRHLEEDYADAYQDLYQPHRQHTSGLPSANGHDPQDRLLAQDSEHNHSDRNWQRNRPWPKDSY
T2 sequence (P54289 25-946 partner limits assumed): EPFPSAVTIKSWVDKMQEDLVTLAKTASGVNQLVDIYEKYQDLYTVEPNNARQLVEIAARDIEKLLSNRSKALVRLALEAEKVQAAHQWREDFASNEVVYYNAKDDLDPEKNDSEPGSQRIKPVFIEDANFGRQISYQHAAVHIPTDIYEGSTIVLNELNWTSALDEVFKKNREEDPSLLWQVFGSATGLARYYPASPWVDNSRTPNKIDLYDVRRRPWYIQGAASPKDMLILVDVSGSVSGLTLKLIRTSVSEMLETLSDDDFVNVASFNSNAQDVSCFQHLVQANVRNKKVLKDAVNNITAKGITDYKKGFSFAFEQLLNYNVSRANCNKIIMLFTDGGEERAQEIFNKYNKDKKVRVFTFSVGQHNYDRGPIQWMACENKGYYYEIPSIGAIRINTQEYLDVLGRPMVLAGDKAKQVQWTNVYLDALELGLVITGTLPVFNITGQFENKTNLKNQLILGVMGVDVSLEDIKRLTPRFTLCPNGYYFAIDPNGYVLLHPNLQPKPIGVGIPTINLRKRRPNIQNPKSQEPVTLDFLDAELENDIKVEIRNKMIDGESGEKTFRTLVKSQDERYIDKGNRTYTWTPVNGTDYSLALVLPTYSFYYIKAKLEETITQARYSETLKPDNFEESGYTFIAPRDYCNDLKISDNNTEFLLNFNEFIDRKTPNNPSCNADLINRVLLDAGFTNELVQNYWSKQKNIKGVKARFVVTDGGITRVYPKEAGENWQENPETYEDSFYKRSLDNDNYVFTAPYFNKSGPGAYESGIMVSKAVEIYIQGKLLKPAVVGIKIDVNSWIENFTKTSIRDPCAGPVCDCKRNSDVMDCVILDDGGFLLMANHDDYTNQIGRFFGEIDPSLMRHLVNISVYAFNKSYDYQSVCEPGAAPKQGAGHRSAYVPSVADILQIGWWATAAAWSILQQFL
T2 sequence (P54289 947-1103 partner limits assumed): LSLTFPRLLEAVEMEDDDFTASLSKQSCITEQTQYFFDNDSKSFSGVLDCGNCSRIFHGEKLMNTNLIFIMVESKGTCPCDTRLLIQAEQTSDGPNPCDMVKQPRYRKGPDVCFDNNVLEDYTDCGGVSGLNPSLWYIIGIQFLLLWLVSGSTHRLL
Description: TSA201 cells stably transfected with human Cav2.2 (composed of the subunits α1, β3 and α2δ) and human Kir2.3 to enhance the FLIPR Ca^2+ signal were used. These cells were plated on 384-well collagen-coated plates (BD Bioscience, Franklin Lakes, N.J.) at a density of 2×10^4 cells/well one day prior to the FLIPR assay. […] Culture media is removed and replaced with 25 μl of the FLUO-4 dye solution and incubated for one hour at room temperature. The cell plate is then placed on the FLIPR where the dye is aspirated off and replaced with 25 μl of HBSS (Invitrogen, Carlsbad, Calif.). The HBSS is then aspirated and replaced with […] of compound which is diluted in HBSS with 1% DMSO. Compounds are incubated on the cells for 15 minutes. The cells are then depolarized with 25 μl of 140 mM KCl solution (also containing 2 mM CaCl2 and 10 mM HEPES). The final concentration of KCl on the cells is 70 mM.

[2] = fifth pulse (P5) of 5 Hz train, read-out: HEK Cav2.2 P5 IC50
[3] = first pulse (P1) of 5 Hz train, read-out: HEK Cav2.2 P1 IC50

T1 sequence (Q00975 whole entry): as the sequence (Q00975 whole entry) above
T1 sequence (P54284 whole entry partner): as the sequence (P54284 whole entry partner) above
T1 sequence (P54289 25-946 partner limits assumed): as the sequence (P54289 25-946 partner limits assumed) above
T1 sequence (P54289 947-1103 partner limits assumed): as the sequence (P54289 947-1103 partner limits assumed) above

Row | IC50 (Cav2.2; [2]) [µM] | IC50 (Cav2.2; [3]) [µM] | IC50 [1] [µM] | SMILES
1 | 0.4 | 1.1 |  | CCN(CC)c1ccc(N(Cc2cccc(N(CC)C3CC3)c2)C(=O)C(C)(C)C)cc1 [Compound 97, N-[3-(Cyclopropyl(ethyl)amino)-benzyl]-N-(4-diethylamino-phenyl)-2,2-dimethyl-propionamide]
2 | 1.9 | 5.2 |  | CCN(CC)c1ccc(CN(C(=O)CCC(C)C)c2ccc(N)cc2)cc1 [Compound 98, 4-Methyl-pentanoic acid (4-aminophenyl)-(4-Diethylaminobenzyl)-amide]
3 | < 0.1 | 4.3 |  | CCN(CC)c1ccc(CN(C(=O)CCC(C)C)c2ccc(NC)cc2)cc1 [Compound 99, 4-Methyl-pentanoic acid (4-Diethylaminobenzyl)-(4-methylamino-phenyl)-amide]
4 | 4.3 | 8 |  | CCN(c1ccc(CN(C(=O)C(C)(C)C)c2ccc(N(C)C)cc2)cn1)C1CC1 [Compound 100, N-[6-(Cycloproyl(ethyl)amino)-pyridin-3-ylmethyl]-N-(4-dimethylamino-phenyl)-2,2-dimethyl-propionamide]
5 | 8.4 |  |  | CC(C)(C)OC(=O)N(Cc1csc(-c2ccncc2)n1)c1ccc(F)cc1 [Compound 101, (4-Fluorophenyl)-(2-pyridin-4-yl-thiazol-4-ylmethyl)-carabamic acid tert-butyl ester]
6 | 9.6 |  |  | CN1CCN(c2ncc(CN(C(=O)OC(C)(C)C)c3ccc(F)cc3)s2)CC1 [Compound 102, (4-Fluorophenyl)-[2-(4-methyl-piperazin-1-yl)-thiazol-5-ylmethyl]-carbamic acid tert-butyl ester]
7 | 2.5 | 11.1 |  | O=C(C1CC1)N(Cc1csc(N2CCCCC2)n1)c1ccc(F)cc1 [Compound 107, Cyclopropanecarboxylic acid (4-fluorophenyl)-(2-piperidin-1-yl-thiazol-4-ylmethyl)-amide]
8 | 3.9 | 14.1 |  | O=C(C1CCCCC1)N(Cc1csc(N2CCOCC2)n1)c1ccc(F)cc1 [Compound 108, Cyclohexanecarboxylic acid (4-fluorophenyl)-(2-morpholin-4-yl-thiazol-4-ylmethyl)-amide]
9 | 2.6 | 13.9 |  | O=C(C1CCCO1)N(Cc1ccc(N2CCN(c3ccccn3)CC2)nc1)c1ccc(F)cc1 (centres unmarked) [Compound 109, Tetrahydro-furan-2-carboxylic acid (4-fluorophenyl)-[6-(4-pyridin-2-yl-piperazin-1-yl)-pyridin-3-ylmethyl]-amide]
10 | 2.1 | 4.8 |  | CN(c1ccc(F)cc1)c1nc(CN(C(=O)C2CCCN2C)c2ccc(F)cc2)cs1 (centres unmarked) [Compound 114, 1-Methyl-pyrrolidine-2-carboxylic acid (4-fluroophenyl)-{2-[(4-fluorophenyl)-methyl-amino]-thiazol-4-ylmethyl]-amide]
11 | 0.6 | 2.7 |  | CCN(c1ccc(CN(C(=O)C2CCCN2Cc2ccccc2)c2ccc(F)cc2)cn1)C1CC1 (centres unmarked) [Compound 115, 1-Benzyl-pyrrolidine-2-carboxylic acid [6-(Cyclopropyl(ethyl)amino)-pyridin-3-ylmethyl]-(4-fluorophenyl)-amide]
12 |  |  | 34.8 | CCN(CC)c1ccc(CN(C(=O)[C@@H]2CCCN2)c2ccc(F)cc2)cn1 [Compound 116, N-{[6-(diethylamino)pyridin-3-yl]methyl}-N-(4-fluroophenyl)-L-prolinamide]
13 |  |  | 9.7 | CCN(c1ccc(CN(C(=O)[C@@H]2CCCN2)c2ccc(OC)cc2)cc1)C1CC1 [Compound 117, N-{4-[cyclopropyl(ethyl)amino]benzyl}-N-(4-methoxyphenyl)-L-prolinamide]
14 |  |  | 3.4 | CCN(c1cccc(CN(C(=O)[C@@H]2CCCN2)c2ccc(F)cc2)c1)C1CC1 [Compound 118, N-{3-[cyclopropyl(ethyl)amino]benzyl}-N-(4-fluorophenyl)-L-prolinamide]
15 |  |  | 12.2 | CCN(CC)c1cccc(CN(C(=O)[C@@H]2CCCN2)c2ccc(Cl)cc2)n1 [Compound 119, N-(4-chlorophenyl)-N-{[6-(diethylamino)pyridin-2-yl]methyl}-L-prolinamide]
16 |  |  | 13.7 | Cc1cc(F)ccc1N(Cc1cnc(N2CCCCC2)nc1)C(=O)[C@@H]1CCCN1 [Compound 120, N-(4-fluoro-2-methylphenyl)-N-[(2-piperidin-1-ylpyrimidin-5-yl)methyl]-L-prolinamide]
17 |  |  | 20.9 | Cc1ccc(N(Cc2cnc(N3CCCC3)s2)C(=O)[C@@H]2CCCN2)cc1 [Compound 121, N-(4-methylphenyl)-N-[(2-pyrrolidin-1-yl-1,3-thiazol-5-yl)methyl]-L-prolinamide]
18 |  |  | 13.8 | CCN(c1nc(CN(C(=O)[C@@H]2CCCN2)c2ccc(F)cc2)cs1)C1CC1 [Compound 122, N-({2-[cyclopropyl(ethyl)amino]-1,3-thiazol-4-yl}methyl)-N-(4-fluorophenyl)-L-prolinamide]
19 |  |  | 10.2 | CCN(c1nc(CN(C(=O)[C@H]2CCCN2)c2ccc(F)cc2)cs1)C1CC1 [Compound 123, N-({2-[cyclopropyl(ethyl)amino]-1,3-thiazol-4-yl}methyl)-N-(4-fluorophenyl)-D-prolinamide]
20 |  |  | 19.7 | CCN(c1nc(CN(C(=O)[C@@H]2CCC(=O)N2)c2ccc(F)cc2)cs1)C1CC1 [Compound 124, N-({2-[cyclopropyl(ethyl)amino]-1,3-thiazol-4-yl}methyl)-N-(4-fluorophenyl)-5-oxo-L-prolinamide]
21 |  |  | 9.5 | CN1CCN(c2ccc(CN(C(=O)C3CCCCC3)c3ccc(F)cc3)cn2)CC1 [Compound 125, N-(4-fluorophenyl)-N-{[6-(4-methylpiperazin-1-yl)pyridin-3-yl]methyl}cyclohexanecarboxamide]
22 |  |  | 30 | CN1CCN(c2ccc(CN(C(=O)NC(C)(C)C)c3ccc(F)cc3)cn2)CC1 [Compound 126, N′-(tert-butyl)-N-(4-fluorophenyl)-N-{[6-(4-methylpiperazin-1-yl)pyridin-3-yl]methyl}urea]
23 |  |  | 2.6 | CC(CC(=O)N(Cc1ccc(N(C)CCc2ccccn2)nc1)c1ccc(F)cc1)C(F)(F)F (centres unmarked) [Compound 127]
24 |  |  | 9.1 | O=C(C1CCCCC1)N(Cc1ccc(N2CCN(c3ccccn3)CC2)nc1)c1ccc(F)cc1 [Compound 128, N-(4-fluorophenyl)-N-{[6-(4-pyridin-2-ylpiperazin-1-yl)pyridin-3-yl]methyl}cyclohexanecarboxamide]
25 |  |  | 1.5 | CCN(CC)c1ccc(CN(C(=O)Cc2cccs2)c2ccc(F)cc2)cn1 [Compound 129]
26 |  |  | 14.8 | CN(CCO)c1ccc(CN(C(=O)C(C)(C)C)c2ccc(F)cc2)cn1 [Compound 130, N-(4-fluorophenyl)-N-({6-[(2-hydroxyethyl)(methyl)amino]pyridin-3-yl}methyl)-2,2-dimethylpropanamide]
27 |  |  | 8.1 | Cc1ccc(OCCN(C)c2ccc(CN(C(=O)C(C)(C)C)c3ccc(F)cc3)cn2)nc1 [Compound 131, N-(4-fluorophenyl)-2,2-dimethyl-N-{[6-(methyl{2-[(5-methylpyridin-2-yl)oxy]ethyl}amino)pyridin-3-yl]methyl}propanamide]
28 |  |  | 8.2 | CC(C)(C)C(=O)N(Cc1ccc(N2CCCC2)nc1)c1ccc(F)cc1 [Compound 132, N-(4-fluorophenyl)-2,2-dimethyl-N-[(6-pyrrolidin-1-ylpyridin-3-yl)methyl]propanamide]
29 |  |  | 11.5 | CCN(CC)C1CCN(c2ccc(CN(C(=O)C(C)(C)C)c3ccc(F)cc3)cn2)C1 (centres unmarked) [Compound 133, N-({6-[3-(diethylamino)pyrrolidin-1-yl]pyridin-3-yl}methyl)-N-(4-fluorophenyl)-2,2-dimethylpropanamide]

Source: patent publication US20100267697A1, “ION CHANNEL MODULATORS” (Wyeth, priority 2006, published 2010)
